# In ChEMBL document CHEMBL1201862, “PubChem BioAssay data set” (2004):
#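 Values below derive from 48-hour exposures of cells grown in 96-well plates, with endpoints linearly interpolated between the two concentrations bracketing the appropriate inhibition level. At the GI50, growth is halved.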 Active and inactive are the calls of the source. Rule as the data show it: active = GI50 up to about 1.1 µM and inactive = higher.
# Key:
# Assay in all cases: growth of human tumour cells (NCI), 48 h
# HOP-62 = test system: HOP-62
# U-251 = test system: U-251
# ACHN = test system: ACHN
# SF-295 = test system: SF-295
# NCI-H23 = test system: NCI-H23
# PC-3 = test system: PC-3
# SR = test system: SR
# HCT-15 = test system: HCT-15
# OVCAR-5 = test system: OVCAR-5
# OVCAR-3 = test system: OVCAR-3
# SW-620 = test system: SW-620
# LOX IMVI = test system: LOX IMVI
# NCI-H460 = test system: NCI-H460
# 786-0 = test system: 786-0
# SF-539 = test system: SF-539
# RPMI-8226 = test system: RPMI-8226
# HCT-116 = test system: HCT-116
# NCI-H522 = test system: NCI-H522
# NCI-H226 = test system: NCI-H226
SMILES,GI50 (HOP-62),GI50 (U-251),GI50 (ACHN),GI50 (SF-295),GI50 (NCI-H23),GI50 (PC-3),GI50 (SR),GI50 (HCT-15) [µM],GI50 (OVCAR-5),GI50 (OVCAR-3),GI50 (SW-620),GI50 (LOX IMVI),GI50 (NCI-H460),GI50 (786-0),GI50 (SF-539),GI50 (RPMI-8226),GI50 (HCT-116),GI50 (NCI-H522),GI50 (NCI-H226)
COc1ccc(-c2cc(-c3ccc(Nc4ccnc5cc(C(F)(F)F)ccc45)cc3)nc(N)c2C#N)c2ccccc12,> 100 µM (inactive),> 100 µM (inactive),> 100 µM (inactive),> 100 µM (inactive),> 100 µM (inactive),> 100 µM (inactive),32.5 µM (inactive),> 100,> 100 µM (inactive),> 100 µM (inactive),> 100 µM (inactive),29.4 µM (inactive),> 100 µM (inactive),> 100 µM (inactive),> 100 µM (inactive),> 100 µM (inactive),97.9 µM (inactive),,
N=C(N)NS(=O)(=O)c1ccc(NC(=O)c2cccc3c(O)c4ccccc4nc23)cc1,> 78.5 µM (inactive),48 µM (inactive),> 100 µM (inactive),60.3 µM (inactive),> 92.3 µM (inactive),> 100 µM (inactive),> 74.8 µM (inactive),> 100,99.3 µM (inactive),> 100 µM (inactive),> 100 µM (inactive),> 75 µM (inactive),> 100 µM (inactive),58.1 µM (inactive),> 78.3 µM (inactive),> 100 µM (inactive),> 100 µM (inactive),> 100 µM (inactive),> 100 µM (inactive)
Nc1c2ccccc2nc2nccnc12,> 100 µM (inactive),> 100 µM (inactive),> 100 µM (inactive),> 100 µM (inactive),> 100 µM (inactive),,> 100 µM (inactive),> 100,> 100 µM (inactive),> 100 µM (inactive),> 100 µM (inactive),> 100 µM (inactive),> 100 µM (inactive),> 100 µM (inactive),> 100 µM (inactive),> 100 µM (inactive),> 100 µM (inactive),> 100 µM (inactive),> 100 µM (inactive)
Cc1cc(C)c2c(c1)N[S@@](=O)S2,57.9 µM (inactive),16.8 µM (inactive),23.4 µM (inactive),39.7 µM (inactive),35.4 µM (inactive),,36.2 µM (inactive),16.5,30.6 µM (inactive),18.3 µM (inactive),3.74 µM (inactive),15.3 µM (inactive),21.8 µM (inactive),15 µM (inactive),26.1 µM (inactive),34.7 µM (inactive),17.1 µM (inactive),17.4 µM (inactive),19.2 µM (inactive)
Cc1ccccc1C1OC(=O)c2ccc3ccccc3c21 (stereo unspecified),0.442 µM (active),3.57 µM (inactive),4.63 µM (inactive),7.35 µM (inactive),5.71 µM (inactive),,0.769 µM (active),2.93,8.57 µM (inactive),3.65 µM (inactive),4.52 µM (inactive),2.57 µM (inactive),3.23 µM (inactive),4.57 µM (inactive),3.27 µM (inactive),1.61 µM (inactive),2.52 µM (inactive),1.82 µM (inactive),4.75 µM (inactive)
CSc1ccc(N2C(=O)C3c4[nH]c5ccccc5c4C4CCC(C(C)(C)C)CC4C3C2=O)cc1 (stereo unspecified),12.2 µM (inactive),16.4 µM (inactive),13.9 µM (inactive),14.3 µM (inactive),15.5 µM (inactive),,10.2 µM (inactive),66.2,48.3 µM (inactive),41.2 µM (inactive),21.3 µM (inactive),14 µM (inactive),14.1 µM (inactive),14.9 µM (inactive),18.3 µM (inactive),28.4 µM (inactive),5.24 µM (inactive),16.2 µM (inactive),19.1 µM (inactive)
Nc1nc(N)c(C2=CCNCC2)c(=O)[nH]1,> 100 µM (inactive),> 100 µM (inactive),> 100 µM (inactive),> 100 µM (inactive),> 100 µM (inactive),> 100 µM (inactive),> 100 µM (inactive),> 100,> 100 µM (inactive),> 100 µM (inactive),> 100 µM (inactive),,> 100 µM (inactive),> 100 µM (inactive),> 100 µM (inactive),> 100 µM (inactive),> 100 µM (inactive),> 100 µM (inactive),> 100 µM (inactive)
COc1cc(/C=C(\C#N)c2ccccc2)cc(OC)c1,74.1 µM (inactive),28.3 µM (inactive),60.5 µM (inactive),21.9 µM (inactive),20.3 µM (inactive),,36.1 µM (inactive),24,55.1 µM (inactive),> 100 µM (inactive),38.9 µM (inactive),22.1 µM (inactive),42.6 µM (inactive),31.8 µM (inactive),41.1 µM (inactive),35.6 µM (inactive),49.5 µM (inactive),32.4 µM (inactive),25.8 µM (inactive)
CC1=NN(c2nc(N)nc(CCl)n2)CC1,11.4 µM (inactive),29.4 µM (inactive),17.3 µM (inactive),30.2 µM (inactive),19.3 µM (inactive),36.2 µM (inactive),20.8 µM (inactive),17.3,20 µM (inactive),13.4 µM (inactive),23.3 µM (inactive),,20.9 µM (inactive),10.1 µM (inactive),24.5 µM (inactive),38.9 µM (inactive),24.5 µM (inactive),1.96 µM (inactive),30.5 µM (inactive)
C[C@H]1CC[P+](C)(c2ccccc2)C1 (stereo partly specified),> 100 µM (inactive),> 100 µM (inactive),> 100 µM (inactive),> 100 µM (inactive),> 100 µM (inactive),,> 100 µM (inactive),> 100,> 100 µM (inactive),> 100 µM (inactive),> 100 µM (inactive),> 100 µM (inactive),> 100 µM (inactive),> 100 µM (inactive),> 100 µM (inactive),> 100 µM (inactive),> 100 µM (inactive),> 100 µM (inactive),> 100 µM (inactive)
O=S1OC(c2ccccc2)(c2ccccc2)C(c2ccccc2)(c2ccccc2)O1,> 100 µM (inactive),25.1 µM (inactive),41.7 µM (inactive),14.1 µM (inactive),> 52.7 µM (inactive),,8.93 µM (inactive),> 30.3,> 100 µM (inactive),> 100 µM (inactive),> 100 µM (inactive),2.56 µM (inactive),> 30.1 µM (inactive),> 100 µM (inactive),> 100 µM (inactive),5.15 µM (inactive),4.61 µM (inactive),> 50.1 µM (inactive),> 100 µM (inactive)
c1ccc(C2OC3(CCC[C@H]4C[C@H]43)O[C@H]2c2ccccc2)cc1 (stereo partly specified),56.1 µM (inactive),41.1 µM (inactive),30.3 µM (inactive),46.3 µM (inactive),38.6 µM (inactive),,27.2 µM (inactive),33.8,60.8 µM (inactive),37.4 µM (inactive),31.2 µM (inactive),24.2 µM (inactive),39.8 µM (inactive),57 µM (inactive),> 100 µM (inactive),40.3 µM (inactive),31.8 µM (inactive),22.7 µM (inactive),26.2 µM (inactive)
